Where a name gives a salt, the structure may show the parent alone.
How the values were obtained:
[1] = test system: MOLM-14 cells; assay: Proliferation assay (spheroid), MOLM-14; format: cell-based; conditions: Homo sapiens, 8 days, read-out: spheroid assay_OneTime MOLM-14 IC50
[2] = Metabolic stability in human liver microsomes; format: in vitro ADME; conditions: pH 7.4, 0.5 mg/mL microsomes protein, read-out: Human LM Clint
Protocol: 4) Metabolic Stability in Human/Mouse Liver Microsomes
The objective of this study is to measure in vitro metabolic stability of test compound(s) in human and mouse liver microsomes and provide quantitative information on the rate of metabolic turnover (i.e., determination of the apparent intrinsic clearance of test).
Test items were prepared at a stock concentration of 10 mM in DMSO. For determination of metabolic turnover, a final working solution was prepared by adding 2 μL of 10 mM DMSO stock solution for test compound or positive control compounds to 198 μL of acetonitrile (100 μM final concentration).
Incubations were performed as follows: First, liver microsomes were thawed on ice and a master solution containing liver microsomes in 100 mM PBS (phosphate-buffered saline) at pH 7.4 is prepared. Next, the liver microsomes solution was added to the incubation plates and 10 mM NADPH (Nicotinamide-adenine dinucleotide phosphate) was added (MW: 833.4 g/mol; Roche Diagnostics GmbH1, Germany. Dissolved in phosphate buffer (100 mmol/L, pH 7.4)). […]
All calculations were carried out using Microsoft Excel. The slope value, k, was determined by linear regression of the natural logarithm of the remaining percentage of the parent drug vs. incubation time curve.
The in vitro half-life (in vitro t1/2) was determined from the slope value: […]

[3] = test system: OCI-AML3 tumors; assay: Efficacy study in disseminated OCI-AML3 model; format: in vivo, SCID beige mice
Protocol: Day 0 is the day of tumor cell implantation and study initiation.
Median survival was determined utilizing Kaplan-Meier survival analysis.

[4] = Mouse PK (in vivo T1/2 and oral bioavailability); conditions: fasted male CD-1 mice, single IV 0.5 or 1.0 mg/kg; formulating agent: A HP-β-CD, A3 Pyrogen free water
Protocol: 3) Mouse PK (In Vivo T1/2 and Oral Bioavailability)
In vivo pharmacokinetics (PK) were assessed in fasted male CD-1 mice (age 6-8 weeks) following a single intravenous (IV, 0.5 or 1.0 mg/kg administered at 2.5 ml/kg) or oral (PO, 5 mg/kg administered at 10 ml solution/kg) dose of test article formulated in a 20% (w:vol) HP-β-CD solution or in Pyrogen free water.
Plasma and/or whole blood samples were collected from the dorsal metatarsal vein at desired timepoints via serial capillary microsampling (approx. 0.03 mL) using EDTA as an anticoagulant. Concentrations of compound in the plasma and blood samples were analyzed using a qualified LC-MS/MS method. In silico analysis of main pharmacokinetic parameters was performed using WinNonlin (Phoenix™, version 6.1) or similar software.)

| SMILES | IC50 [1] | microsomal CLint at 1 μM [2] | median days of survival ([3]; 30 mg/kg PO daily for 28 days) | median days of survival ([3]; 50 mg/kg PO daily for 28 days) | median days of survival ([3]; 100 mg/kg PO daily for 28 days) | In vivo T1/2 (IV) [4] |
| --- | --- | --- | --- | --- | --- | --- |
| CCN(C(=O)c1cc(F)ccc1Oc1nncnc1N1CCC2(C1)CN([C@H](CCCNCCOC)C(C)C)C2)C(C)C [Compound 11, (R)-N-ethyl-5-fluoro-N-isopropyl-2-((5-(2-(6-((2-methoxyethyl)amino)-2-methylhexan-3-yl)-2,6-diazaspiro[3.4]octan-6-yl)-1,2,4-triazin-6-yl)oxy)benzamide] | 21 nM | 14 µL/min/mg | – | – | – | – |
| CCN(C(=O)c1cc(F)ccc1Oc1nncnc1N1CCC2(C1)CN([C@H](CCCN(C)CCOC)C(C)C)C2)C(C)C [Compound A3, (R)-N-ethyl-5-fluoro-N-isopropyl-2-((5-(2-(6-((2-methoxyethyl) (methyl)amino)-2-methylhexan-3-yl)-2,6-diazaspiro[3.4]octan-6-yl)-1,2,4-triazin-6-yl)oxy) benzamide oxalate] | – | – | 75.5 days | 58.5 days | 75 days | 9.0 h |

From US20240261292A1, “COMBINATION THERAPIES” (Janssen Pharmaceutica NV, priority 2021, published 2024)
